Measurements: patent US20120202885A1, “METHODS, ASSAYS AND COMPOSITIONS FOR TREATING RETINOL-RELATED DISEASES” (ReVision Therapeutics, Inc., priority 2004, published 2012)
Each block holds one compound with its values, some of them ahead of it.

Columns and labels:
[1] = molecular target: Retinol Binding Protein (RBP) (Homo sapiens, UniProt P02753); assay: Fluorescence quenching study of MPR binding to retinol binding protein
Experimental: Apo-RBP at 0.5 μM was incubated with 0, 0.25, 0.5, 1 and 2 μM of MPR in PBS at room temperature for 1 hour, respectively. As controls, the same concentration of Apo-RBP was also incubated with 1 μM of HPR or 1 μM of atROL. All mixtures contained 0.2% Ethanol (v/v). The emission spectra were measured between 290 nm to 550 nm with excitation wavelength at 280 nm and 3 nm bandpass.

TTR binding to RBP = TTR binding to RBP (Homo sapiens, UniProt P02753); assay: Size exclusion study of transthyretin (TTR) binding to RBP; details: 10 μM Apo-RBP; for binding of ligand-RBP to TTR: gel filtration, 360/330 nm absorbance
Experimental: Apo-RBP at 10 μM was incubated with […] in PBS at room temperature for 1 hour. 10 μM of TTR was then added to the solution, and the mixture was incubated for another hour at room temperature. […] of the sample mixtures with and without TTR addition were analyzed by BioRad Bio-Sil SEC 125 Gel Filtration Column (300×7.8 mm). In control experiments, atROL-RBP and atROL-RBP-TTR mixture were analyzed in the same manner.

[2] = several investigators; Berni et al. 1993; cited from earlier work
retinol-RBP-TTR complex = retinol-RBP-TTR complex (Homo sapiens, UniProt P02753); assay: High-throughput FRET assay for RBP/TTR interaction; type: binding; details: conditions as for HPR, FIG. 6
From the text: Reduction of serum retinol and RBP are correlated with concomitant reductions in toxic lipofuscin fluorophores. Because compounds that affect RBP-TTR interaction will directly affect fluorophore levels in the eye, a high-throughput screen for small molecules which prevent interaction of RBP with TTR was developed. This screen employs probe-labeled forms of RBP and TTR which participate in a unique fluorescence resonance energy transfer (FRET) event when complexed. Compounds which interfere with RBP-TTR interaction prevent FRET. Sample spectra taken during the course of this type of assay are shown, in FIG. 4. […] The sample is incubated at 37° C. for 30 min and then illuminated with 330 nm light. The emission spectra are shown in the range of 400-600 nm. HPR binds to RBP and prevents interaction with TTR, and here this property of HPR is utilized here to validate the ability of this screen to detect inhibition of RBP-TTR interaction. […] Additionally, the design of this assay permits discrimination between compounds which interact with RBP versus those which interact with TTR. Thus, by using two distinct excitation energies (280 nm and 330 nm, for protein and retinol, respectively) and implementing simultaneous monitoring of the retinol and TTR-probe fluorescence, the “target” of a presumptive small molecule can be easily determined.
Accordingly, HPR was employed at varied concentrations (from 0-4 μM), using the conditions specified in Example 7, to evaluate the high throughput assay.
The mechanism of action underlying this effect can be explained by the disruption of RBP-TTR interactions. In order to explore this possibility and to further validate the RBP-TTR screen, the effects of all-trans retinoic and 13-cis retinoic acid, using the conditions the conditions specified for analysis of HPR, were examined.

ABCA4−/− mice = assay: Drug holiday after 28 days of HPR: A2E and precursors in eyecup extracts (HPLC); type: in vivo; details: 28-day drug holiday
Experimental: HPR (10 mg/kg in DMSO) was administered to ABCA4−/− mice daily for a period of 28 days. Control ABCA4−/− mice received only DMSO for the same period. […] Importantly, the observed reductions in lipofuscin autofluorescence persist long after cessation of HPR therapy. HPR (10 mg/kg), or DMSO, administration was discontinued following 28 days of treatment and re-evaluated A2E and precursor levels after 2 weeks and after 4 weeks.
We examined eyecup extracts by HPLC and employed detection by absorbance and fluorimetry. Identity of the indicated peaks was confirmed by on-line spectral analysis and by co-elution with authentic standards. […] Further, the A2E and precursor (A2PE-H2 and A2PE) levels after a […] or 28-day drug holiday remained at or near the levels immediately following 28 days of treatment (i.e., ca. 50% reduction relative to control), although after the 28-day drug holiday, the amount of A2E and precursor (A2PE-H2 and A2PE) had increased by a few percentage points relative to the 12-day drug holiday levels. […] It is clear that peak fluorescence tracks with the abundance of A2E, A2PE and A2PE-H2.

binding to RBP ([1]; 1 μM ligand, 0.5 μM Apo-RBP): bind to RBP | binding of ligand-RBP to TTR (TTR binding to RBP; 10 μM TTR): binds to TTR
SMILES: CC1=C(/C=C/C(C)=C/C=C/C(C)=C/CO)C(C)(C)CCC1 [atROL, all-trans retinol]

inhibition of RBP-TTR interaction (retinol-RBP-TTR complex): inhibitors of RBP-TTR interaction
SMILES: CC1=C(/C=C/C(C)=C/C=C/C(C)=C/C(=O)O)C(C)(C)CCC1 [all-trans retinoic, all-trans-retinoic acid]
reduction in circulating RBP and retinol [2]: observed in vivo

inhibition of RBP-TTR interaction (retinol-RBP-TTR complex): inhibitors of RBP-TTR interaction
SMILES: CC1=C(/C=C/C(C)=C/C=C/C(C)=C\C(=O)O)C(C)(C)CCC1 [13-cis retinoic acid, 13-cis-retinoic acid]

quenching of RBP fluorescence ([1]; 0.5 μM Apo-RBP, 0-2 μM MPR, room temperature 1 hour, excitation 280 nm): concentration-dependent quenching | degree of quenching compared with other ligands ([1]; controls at 1 μM): smaller than those by atROL and HPR | concentration at which quenching saturated ([1]; for 0.5 μM of RBP): 1 µM | detection of HPR or HPR metabolites in the eyes (ABCA4−/− mice): unable to detect | binding of RBP to ligand (360 nm absorbance in RBP elution peak) (TTR binding to RBP): RBP binds to MPR | effect on binding of TTR to RBP (TTR binding to RBP; 10 μM TTR): inhibits the binding of TTR to RBP | binding of ligand-RBP to TTR (TTR binding to RBP; 10 μM TTR): did not bind to TTR
SMILES: COc1ccc(NC(=O)\C=C(C)/C=C/C=C(C)\C=C\C2=C(C)CCCC2(C)C)cc1 (stereo in doubt) [MPR, N-(4-methoxyphenyl)retinamide]
